These results are taken from patent US7615569B2, “Inhibitors of ion channels” (Icagen, Inc., priority 2005, dated 2009).

For test [1] the following is noted: cited from earlier work.
For test [2], the target named is T1, hSCN3A (Homo sapiens, UniProt Q9NY46).
T1 construct: expressed in transfected cells
Briefly: SCN3A inhibitory activity in HEK cells stably expressing hSCN3A (whole-cell patch clamp / radiotracer efflux HTS). The format is cell-based. As to conditions: HEK cells stably transfected with hSCN3A. For orientation: In patch-clamp work, channel activity is measured electrically.

In test [3] the target is Nav1.3 (Homo sapiens, UniProt Q9NY46). As to conditions: read-out: TTX IC-50; cited from earlier work.
Chain of Nav1.3 (Q9NY46 whole entry, looked up): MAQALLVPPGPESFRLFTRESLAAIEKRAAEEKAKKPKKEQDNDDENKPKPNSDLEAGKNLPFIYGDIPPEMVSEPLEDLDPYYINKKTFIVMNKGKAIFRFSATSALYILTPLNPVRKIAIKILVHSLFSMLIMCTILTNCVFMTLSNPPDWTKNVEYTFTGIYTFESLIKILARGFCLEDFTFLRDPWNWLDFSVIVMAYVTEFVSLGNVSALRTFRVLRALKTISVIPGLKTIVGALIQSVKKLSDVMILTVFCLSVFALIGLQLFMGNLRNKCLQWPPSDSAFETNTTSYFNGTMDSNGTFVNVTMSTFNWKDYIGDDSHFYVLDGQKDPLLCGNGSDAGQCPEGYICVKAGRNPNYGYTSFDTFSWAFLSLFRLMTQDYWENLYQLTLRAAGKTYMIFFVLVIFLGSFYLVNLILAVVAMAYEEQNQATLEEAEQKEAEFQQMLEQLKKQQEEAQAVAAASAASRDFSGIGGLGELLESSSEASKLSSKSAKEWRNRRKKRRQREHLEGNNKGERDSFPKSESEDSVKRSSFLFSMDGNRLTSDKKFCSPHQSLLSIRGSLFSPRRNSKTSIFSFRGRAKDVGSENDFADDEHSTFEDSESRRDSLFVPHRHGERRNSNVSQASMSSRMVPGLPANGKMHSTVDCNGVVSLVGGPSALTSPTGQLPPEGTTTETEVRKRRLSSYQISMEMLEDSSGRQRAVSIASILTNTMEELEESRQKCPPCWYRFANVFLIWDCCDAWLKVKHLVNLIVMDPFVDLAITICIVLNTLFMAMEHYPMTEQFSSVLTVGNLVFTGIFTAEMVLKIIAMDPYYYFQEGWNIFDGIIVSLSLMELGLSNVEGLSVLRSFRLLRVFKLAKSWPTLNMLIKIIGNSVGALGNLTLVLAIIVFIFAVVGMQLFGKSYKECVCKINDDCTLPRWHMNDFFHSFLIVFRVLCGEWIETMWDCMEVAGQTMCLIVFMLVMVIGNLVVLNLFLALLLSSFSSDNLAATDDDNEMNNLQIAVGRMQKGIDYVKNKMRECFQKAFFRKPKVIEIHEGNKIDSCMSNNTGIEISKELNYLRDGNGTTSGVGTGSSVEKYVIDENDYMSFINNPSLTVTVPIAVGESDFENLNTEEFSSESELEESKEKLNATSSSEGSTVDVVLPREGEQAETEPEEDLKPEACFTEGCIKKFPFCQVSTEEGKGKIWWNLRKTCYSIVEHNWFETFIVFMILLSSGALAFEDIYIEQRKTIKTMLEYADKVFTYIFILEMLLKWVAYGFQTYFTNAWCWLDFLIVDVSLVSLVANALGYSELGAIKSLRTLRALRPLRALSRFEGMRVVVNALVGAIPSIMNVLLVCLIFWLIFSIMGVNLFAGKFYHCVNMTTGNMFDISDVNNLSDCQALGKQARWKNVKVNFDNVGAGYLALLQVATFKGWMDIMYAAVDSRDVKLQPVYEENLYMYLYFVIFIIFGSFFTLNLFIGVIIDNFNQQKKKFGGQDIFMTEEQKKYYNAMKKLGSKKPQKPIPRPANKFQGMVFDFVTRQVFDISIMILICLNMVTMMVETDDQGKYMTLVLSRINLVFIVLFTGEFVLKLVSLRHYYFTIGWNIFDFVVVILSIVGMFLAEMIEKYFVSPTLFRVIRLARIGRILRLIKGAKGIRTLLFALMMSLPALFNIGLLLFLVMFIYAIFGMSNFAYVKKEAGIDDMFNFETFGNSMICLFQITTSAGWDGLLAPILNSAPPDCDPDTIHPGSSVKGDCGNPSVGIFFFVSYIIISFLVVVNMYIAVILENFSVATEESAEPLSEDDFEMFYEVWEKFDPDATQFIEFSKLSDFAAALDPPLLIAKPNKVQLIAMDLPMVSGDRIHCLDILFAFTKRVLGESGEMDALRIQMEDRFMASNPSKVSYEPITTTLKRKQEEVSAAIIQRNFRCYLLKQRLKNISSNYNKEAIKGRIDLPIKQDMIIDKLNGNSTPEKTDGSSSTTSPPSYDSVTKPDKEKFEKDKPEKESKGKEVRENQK
The target in test [4] is Nav1.2 (Homo sapiens, UniProt Q99250). As to conditions: read-out: TTX IC-50; cited from earlier work.
In test [5] the target is Nav1.1 (Homo sapiens, UniProt P35498). As to conditions: read-out: TTX IC-50; cited from earlier work.
Test [6] concerns the target Nav1.9 (Homo sapiens, UniProt Q9UI33). As to conditions: read-out: TTX IC-50; cited from earlier work.
For test [7], the target named is Nav1.8 (Homo sapiens, UniProt Q9Y5Y9). Particulars: read-out: TTX IC-50; cited from earlier work.
The target of test [8] is Nav1.6 (Homo sapiens, UniProt Q9UQD0). As to conditions: read-out: TTX IC-50; cited from earlier work.

T1 sequence (Q9NY46 whole entry): as the sequence (Q9NY46 whole entry, looked up) above
Chain of Nav1.9 (Q9UI33 whole entry, looked up): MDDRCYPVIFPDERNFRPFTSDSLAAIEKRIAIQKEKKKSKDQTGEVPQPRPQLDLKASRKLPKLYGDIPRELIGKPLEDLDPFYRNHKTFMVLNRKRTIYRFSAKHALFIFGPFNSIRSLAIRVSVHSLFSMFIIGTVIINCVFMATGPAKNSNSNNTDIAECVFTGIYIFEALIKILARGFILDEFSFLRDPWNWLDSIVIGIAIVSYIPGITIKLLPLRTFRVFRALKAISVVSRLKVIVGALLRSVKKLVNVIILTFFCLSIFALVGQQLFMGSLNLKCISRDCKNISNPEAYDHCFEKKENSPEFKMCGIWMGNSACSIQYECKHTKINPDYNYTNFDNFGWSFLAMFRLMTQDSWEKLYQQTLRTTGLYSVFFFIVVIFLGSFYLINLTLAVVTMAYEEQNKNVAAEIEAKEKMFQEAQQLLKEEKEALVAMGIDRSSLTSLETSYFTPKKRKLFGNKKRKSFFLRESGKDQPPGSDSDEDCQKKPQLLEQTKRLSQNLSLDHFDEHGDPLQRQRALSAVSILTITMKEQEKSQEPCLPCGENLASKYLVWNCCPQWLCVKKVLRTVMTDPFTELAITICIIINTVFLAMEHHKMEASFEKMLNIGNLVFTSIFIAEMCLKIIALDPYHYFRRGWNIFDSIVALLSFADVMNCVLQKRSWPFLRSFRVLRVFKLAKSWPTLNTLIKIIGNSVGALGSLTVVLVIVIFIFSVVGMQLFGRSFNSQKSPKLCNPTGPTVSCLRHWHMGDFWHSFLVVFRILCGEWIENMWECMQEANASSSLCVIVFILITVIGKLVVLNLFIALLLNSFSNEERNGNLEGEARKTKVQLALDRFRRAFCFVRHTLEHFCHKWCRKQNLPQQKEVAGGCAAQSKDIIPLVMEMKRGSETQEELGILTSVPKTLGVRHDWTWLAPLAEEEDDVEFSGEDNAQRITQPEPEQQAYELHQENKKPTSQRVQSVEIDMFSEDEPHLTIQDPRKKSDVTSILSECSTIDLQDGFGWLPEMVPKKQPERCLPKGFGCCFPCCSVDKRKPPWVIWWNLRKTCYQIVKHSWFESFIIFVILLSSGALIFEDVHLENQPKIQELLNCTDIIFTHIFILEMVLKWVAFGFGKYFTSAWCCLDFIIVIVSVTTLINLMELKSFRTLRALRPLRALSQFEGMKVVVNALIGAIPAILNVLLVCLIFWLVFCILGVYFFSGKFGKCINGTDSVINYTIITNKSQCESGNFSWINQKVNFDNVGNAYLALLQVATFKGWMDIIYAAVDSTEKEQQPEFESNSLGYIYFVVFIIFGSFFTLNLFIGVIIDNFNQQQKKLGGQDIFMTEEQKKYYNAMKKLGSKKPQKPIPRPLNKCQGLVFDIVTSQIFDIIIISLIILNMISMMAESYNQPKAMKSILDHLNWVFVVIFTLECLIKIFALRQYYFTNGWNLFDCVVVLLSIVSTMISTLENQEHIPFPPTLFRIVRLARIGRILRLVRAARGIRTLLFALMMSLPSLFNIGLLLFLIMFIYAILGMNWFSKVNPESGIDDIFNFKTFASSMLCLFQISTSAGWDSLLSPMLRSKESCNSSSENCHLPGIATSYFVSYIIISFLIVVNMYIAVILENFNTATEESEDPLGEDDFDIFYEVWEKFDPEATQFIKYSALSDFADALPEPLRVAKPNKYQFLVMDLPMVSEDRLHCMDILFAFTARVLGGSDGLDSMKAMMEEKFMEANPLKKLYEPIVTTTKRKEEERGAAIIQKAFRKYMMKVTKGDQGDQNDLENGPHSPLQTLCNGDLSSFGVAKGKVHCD

For the compound `NCC1(CC(=O)O)CCCCC1` [gabapentin], the “patients respond to gabapentin treatment for neuropathic pain” value in test [1] is listed as 30%.
As to `O=S(=O)(Cc1ncc(Cl)s1)c1ccc(-c2nc(CCc3cc(Cl)cc(Cl)c3)c[nH]2)cc1` [Compound 122, 5-Chloro-2-(4-{4-[2-(3,5-dichloro-phenyl)-ethyl]-1H-imidazol-2-yl}-benzenesulfonylmethyl)-thiazole], the IC50 in test [2] was under 100 nM.
Still for that read-out and setting: as for `O=S(=O)(Nc1nccs1)c1ccc(-c2nnc(COc3ncc(Cl)cc3Cl)[nH]2)cc1` [Compound 120, 4-[5-(3,5-Dichloro-pyridin-2-yloxymethyl)-4H-[1,2,4]triazol-3-yl]-n-thiazol-2-yl-benzenesulfonamide], the figure is over 1000 nM.
`Cc1ccc(C)c(CCc2c[nH]c(-c3ccc(S(=O)(=O)Nc4nccs4)cc3)n2)c1` [Compound 29, 4-{4-[2-(2,5-Dimethyl-phenyl)-ethyl]-1H-imidazol-2-yl}-N-thiazol-2-yl-benzenesulfonamide] displayed an IC50 in test [2] of 100 to 500 nM.
The same measure, in the same setting: as for `O=S(=O)(Nc1nccs1)c1ccc(-c2nc(CCc3ccccc3Cl)c[nH]2)cc1` [Compound 14, 4-{4-[2-(2-Chloro-phenyl)-ethyl]-1H-imidazol-2-yl}-N-thiazol-2-yl-benzenesulfonamide], the figure is 100 to 500 nM; as for `O=S(=O)(Nc1nccs1)c1ccc(-c2nc(CCc3cc(Cl)cc(Cl)c3)c(I)[nH]2)cc1` [Compound 68, 4-{4-[2-(3,5-Dichloro-phenyl)-ethyl]-5-iodo-1H-imidazol-2-yl}-N-thiazol-2-yl-benzenesulfonamide], under 100 nM.
On the same count and under the same terms, as for `O=S(=O)(Nc1nccs1)c1ccc(-c2nc(CCc3ccc(C(F)(F)F)cc3)c[nH]2)cc1` [Compound 19, N-Thiazol-2-yl-4-{4-[2-(4-trifluoromethyl-phenyl)-ethyl]-1H-imidazol-2-yl}-benzenesulfonamide], the figure is 100 to 500 nM; as for `COCn1c(Cc2ccc(Cl)c(Cl)c2)nnc1-c1ccc(S(=O)(=O)Nc2nccs2)cc1` [Compound 97, 4-[5-(3,4-Dichloro-benzyl)-4-methoxymethyl-4H-[1,2,4]triazol-3-yl]-N-thiazol-2-yl-benzenesulfonamide], 500 to 1000 nM; as for `O=S(=O)(Nc1nccs1)c1ccc(-c2nc(-c3ccccc3)c(-c3ccccc3)[nH]2)cc1` [Compound 1, 4-(4,5-Diphenyl-1H-imidazol-2-yl)-N-thiazol-2-yl-benzenesulfonamide], 100 to 500 nM.
Consider `O=S(=O)(Nc1nccs1)c1ccc(-c2nc(Cc3cccc(OC(F)(F)F)c3)c[nH]2)cc1` [Compound 43, N-Thiazol-2-yl-4-[4-(3-trifluoromethoxy-benzyl)-1H-imidazol-2-yl]-benzenesulfonamide], for which the IC50 in test [2] lay within 500 to 1000 nM.
The same measure, in the same setting: as for `Cc1ccccc1CCc1c[nH]c(-c2ccc(S(=O)(=O)Nc3nccs3)cc2)n1` [Compound 33, N-Thiazol-2-yl-4-[4-(2-o-tolyl-ethyl)-1H-imidazol-2-yl]-benzenesulfonamide], the figure is 500 to 1000 nM.
`O=S(=O)(Nc1nccs1)c1ccc(-c2nc(Cc3ccc(Cl)c(Cl)c3)c[nH]2)cc1` [Compound 36, 4-[4-(3,4-Dichloro-benzyl)-1H-imidazol-2-yl]-N-thiazol-2-yl-benzenesulfonamide]: the IC50 in test [2] is under 100 nM.
Same read-out and setting: then `O=S(=O)(Nc1nccs1)c1ccc(-c2nnc(COc3ccc(C(F)(F)F)cn3)[nH]2)cc1` [Compound 118, N-thiazol-2-yl-4-[5-(5-trifluoromethyl-pyridin-2-yloxymethyl)-4H-[1,2,4]triazol-3-yl]-benzenesulfonamide], with over 1000 nM.
Still for that read-out and setting: then `CC1(Cc2ccc(Cl)c(Cl)c2)N=C(c2ccc(S(=O)(=O)Nc3nccs3)cc2)NC1=O` (stereo not shown) [Compound 107, 4-[4-(3,4-Dichloro-benzyl)-4-methyl-5-oxo-4,5-dihydro-1H-imidazol-2-yl]-N-thiazol-2-yl-benzenesulfonamide], with over 1000 nM; and `O=S(=O)(Nc1nccs1)c1ccc(-c2nc(Cc3ccccc3C(F)(F)F)c[nH]2)cc1` [Compound 51, N-Thiazol-2-yl-4-[4-(2-trifluoromethyl-benzyl)-1H-imidazol-2-yl]-benzenesulfonamide], with 100 to 500 nM; and `O=S(=O)(Nc1nccs1)c1ccc(-c2nc(C(c3ccccc3)C3CCCCC3)c[nH]2)cc1` (stereo not shown) [Compound 47, 4-[4-(Cyclohexyl-phenyl-methyl)-1H-imidazol-2-yl]-N-thiazol-2-yl-benzenesulfonamide], with 100 to 500 nM.
In the case of `NC1=N[C@H](O)[C@H]2[C@H]3O[C@]4(O)O[C@@H]([C@@H](O)[C@@]2(N1)[C@@H]4O)[C@]3(O)CO` [TTX, tetrodotoxin], the IC50 was 15 nM in test [3]; 10 nM in test [4]; 10 nM in test [5]; 1000 nM in test [6]; 50000 nM in test [7]; 6 nM in test [8].
`O=S(=O)(Nc1nccs1)c1ccc(-c2nc(CCc3cc(Cl)cc(Cl)c3)c[nH]2)cc1` [Compound 26, 4-{4-[2-(3,5-Dichloro-phenyl)-ethyl]-1H-imidazol-2-yl}-N-thiazol-2-yl-benzenesulfonamide] had an IC50 in test [2] of under 100 nM.
Regarding `O=S(=O)(Nc1nccs1)c1ccc(-c2ncc(Cc3cc(F)cc(F)c3)[nH]2)cc1` [Compound 7, 4-[5-(3,5-Difluoro-benzyl)-1H-imidazol-2-yl]-N-thiazol-2-yl-benzenesulfonamide], in test [2], the IC50 lay within 100 to 500 nM.
On the same count and under the same terms, as for `O=S(=O)(Nc1nccs1)c1ccc(-c2nc(C3(c4ccccc4)CC3)c[nH]2)cc1` [Compound 41, 4-[4-(1-Phenyl-cyclopropyl)-1H-imidazol-2-yl]-N-thiazol-2-yl-benzenesulfonamide], the figure is over 1000 nM.
